Measurements taken from ChEMBL document CHEMBL2040774, “Potent antiviral HIV-1 protease inhibitor GRL-02031 adapts to the structures of drug resistant mutants with its P1'-pyrrolidinone ring” (J Med Chem, 2012).

Assays:
[1] = system: Human immunodeficiency virus 1; assay: Resistance index, ratio of Ki for HIV1 protease I47V mutant to Ki for HIV1 wild type protease
[2] = system: Human immunodeficiency virus 1; assay: Resistance index, ratio of Ki for HIV1 protease N88D mutant to Ki for HIV1 wild type protease
[3] = molecular target: Protease (Human immunodeficiency virus 1, UniProt Q9YQ12); assay: Inhibition of HIV1 wild type protease using Abz-Thr-Ile-Nle-p-nitro-Phe-Gln-Arg-NH2 as substrate after 5 mins by spectrophotometry
[4] = molecular target: Human immunodeficiency virus type 1 protease (Human immunodeficiency virus 1, UniProt Q72874, L76V); assay: Inhibition of HIV1 protease L76V mutant using Abz-Thr-Ile-Nle-p-nitro-Phe-Gln-Arg-NH2 as substrate after 5 mins by spectrophotometry
[5] = molecular target: Human immunodeficiency virus type 1 protease (Human immunodeficiency virus 1, UniProt Q72874, V82A); assay: Inhibition of HIV1 protease V82A mutant using Abz-Thr-Ile-Nle-p-nitro-Phe-Gln-Arg-NH2 as substrate after 5 mins by spectrophotometry
[6] = system: Human immunodeficiency virus 1; assay: Resistance index, ratio of Ki for HIV1 protease L76V mutant to Ki for HIV1 wild type protease
[7] = system: Human immunodeficiency virus 1; assay: Resistance index, ratio of Ki for HIV1 protease V82A mutant to Ki for HIV1 wild type protease
[8] = molecular target: Human immunodeficiency virus type 1 protease (Human immunodeficiency virus 1, UniProt Q72874, I47V); assay: Inhibition of HIV1 protease I47V mutant using Abz-Thr-Ile-Nle-p-nitro-Phe-Gln-Arg-NH2 as substrate after 5 mins by spectrophotometry
[9] = molecular target: Human immunodeficiency virus type 1 protease (Human immunodeficiency virus 1, UniProt Q72874, N88D); assay: Inhibition of HIV1 protease N88D mutant using Abz-Thr-Ile-Nle-p-nitro-Phe-Gln-Arg-NH2 as substrate after 5 mins by spectrophotometry

Chain of Protease (Q9YQ12 whole entry): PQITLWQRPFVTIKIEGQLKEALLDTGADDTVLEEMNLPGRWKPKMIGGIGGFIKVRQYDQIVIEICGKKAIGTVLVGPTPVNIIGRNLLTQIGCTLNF

Work on `COc1ccc(S(=O)(=O)N(C[C@H]2CCC(=O)N2)C[C@@H](O)[C@H](Cc2ccccc2)NC(=O)O[C@@H]2C[C@@H]3CCO[C@@H]3C2)cc1` yielded a Ratio Ki [1] of less than 2, a Ratio Ki [2] of less than 2 and a Ki [3] of 0.44 nM. The Ki [4] was 0.8 nM, the Ki [5] was 0.65 nM and the Ratio Ki [6] was less than 2. The Ratio Ki [7] was less than 2, the Ki [8] was 0.46 nM and the Ki [9] was 0.92 nM.
